Reference: patent US9260759B2, “Pyrazoloanthrone and derivatives thereof for the treatment of cancers expressing MISRII” (The General Hospital Corporation, priority 2007, dated 2016)

Molecular target: T1, BMP type II receptor (BMPRII) (Homo sapiens, UniProt Q13873)
T1 construct: expressed in transfected cells; host or cells: COS7
T1 sequence (Q13873 27-1038): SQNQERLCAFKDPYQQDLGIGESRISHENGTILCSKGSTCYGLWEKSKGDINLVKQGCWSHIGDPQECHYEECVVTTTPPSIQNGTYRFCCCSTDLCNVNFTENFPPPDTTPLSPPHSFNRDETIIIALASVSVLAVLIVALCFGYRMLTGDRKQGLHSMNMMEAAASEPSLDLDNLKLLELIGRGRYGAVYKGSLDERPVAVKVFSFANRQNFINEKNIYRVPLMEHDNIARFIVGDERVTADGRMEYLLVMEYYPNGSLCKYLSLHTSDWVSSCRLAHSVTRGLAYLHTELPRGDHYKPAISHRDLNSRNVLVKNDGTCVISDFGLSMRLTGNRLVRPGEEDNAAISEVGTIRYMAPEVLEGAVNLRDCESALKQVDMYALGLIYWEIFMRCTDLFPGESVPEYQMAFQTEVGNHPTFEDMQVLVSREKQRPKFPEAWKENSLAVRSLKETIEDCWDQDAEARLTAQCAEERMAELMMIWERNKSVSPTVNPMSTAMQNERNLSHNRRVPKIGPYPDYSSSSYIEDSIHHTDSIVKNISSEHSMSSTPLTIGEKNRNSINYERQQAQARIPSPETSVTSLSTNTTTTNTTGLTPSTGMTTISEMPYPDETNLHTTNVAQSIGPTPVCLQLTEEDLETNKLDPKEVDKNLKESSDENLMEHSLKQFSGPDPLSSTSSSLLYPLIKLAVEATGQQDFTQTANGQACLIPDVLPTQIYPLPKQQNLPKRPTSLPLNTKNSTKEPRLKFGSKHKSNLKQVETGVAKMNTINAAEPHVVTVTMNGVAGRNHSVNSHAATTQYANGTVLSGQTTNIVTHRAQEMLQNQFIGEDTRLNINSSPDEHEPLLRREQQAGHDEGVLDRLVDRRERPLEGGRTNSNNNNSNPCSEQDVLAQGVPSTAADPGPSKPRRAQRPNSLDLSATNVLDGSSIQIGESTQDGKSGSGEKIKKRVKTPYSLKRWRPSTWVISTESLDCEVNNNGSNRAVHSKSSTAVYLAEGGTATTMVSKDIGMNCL
Assay: BRE-luciferase reporter assay in COS7 cells transfected with BMP type II receptor
Assay type: cell-based
Settings: cotreatment with BMP2 and 10 μM SP600125, BMPRII-transfected COS7

O=C1c2ccccc2-c2n[nH]c3cccc1c23 [SP600125, anthra[1,9-cd]pyrazol-6(2H)-one]
decrease of luciferase activity compared to BMP2 alone: 25%
